According to paper PMC7406636, “In vivo and in silico characterization of apocynin in reducing organ oxidative stress: A pharmacokinetic and pharmacodynamic study” (Pharmacology Research & Perspectives, 2020):
Read-outs that look alike come from different tables or passages of the source.

Experiments:
[1] = tested on: Nox2; test: Brain Nox2 expression by immunofluorescence, HFD mouse model; format: in vivo; conditions: HFD brain sections, apocynin 5 mmol/L in drinking water, vs HFD
Description: The experiments were performed exactly as described previously. ^23 Midbrain (containing hippocampus and ventral tegmental area regions) cryosections were used for the experiments. Primary antibodies were used at 1:250 dilution. Bovine serum albumin (2%) was used in the place of primary antibodies as a negative control. Biotin‐conjugated secondary antibody was used at 1:1000 dilution. Specific binding of antibodies was detected by streptavidin‐Cy3. Images were captured using a Nikon fluorescence microscope (Eclipse Ti2‐E). Fluorescence intensities were quantified as described above.

[2] = Apocynin in organs after 16 weeks in drinking water, HFD mouse model (HPLC-MS/MS); format: in vivo; conditions: male, oral, C57BL/6J mice, HFD 16 weeks, apocynin 5 mmol/L in drinking water
Text: The mouse model of high‐fat diet (HFD‐induced metabolic disorders and accelerated aging was established as described previously. ^8 Littermates of WT and Nox2KO mice (Jackson Laboratory) on a C57BL/6J background at 7 months of age were randomly assigned (n = 6/per group) to a HFD containing 45% kcal fat (Special Diets Services), or to a normal chow diet (NCD) containing 9.3% kcal fat (LabDiet Ltd) for 16 weeks. Apocynin was supplied in drinking water (5 mmol/L) for the treatment group. Body weights were measured weekly. Mice were sacrificed at 11 months of age and organs were harvested for further experiments.
(§1) The detection of apocynin in tissue sample was performed as described previously with some modifications. ^17 In brief, apocynin was detected using an Accela HPLC coupled to a linear ion‐trap tandem mass spectrometry (LTQ‐Orbitrap XL; Thermo‐Fisher Scientific) (HPLC‐MS/MS) in the negative ion mode. Phenacetin (500 ng/mL) was used as an internal standard in every vial. A reversed‐phase 50 × 2.1 mm ID, […], 175 Å pore C18 Hypersil Gold column (Thermo Scientific) was used with injection volume set at 5 µL for the separation of apocynin and phenacetin. Calibration curve used for PK analysis was constructed by spiking apocynin in mouse plasma using eight calibrators ranging from 1 to 10000 ng/mL with great reproducibility and R ^2 ≥ 0.996 for subsequent 5 separate experiments on different days. […] Limit of detection for apocynin was set up at signal to noise ratio ≥ 3, ^18 which is 1 ng/mL in our system. The limitation of quantification was set up at signal to noise ratio ≥ 10, which is 10 ng/mL in our system. Orbitrap component was used for the full scan spectra of apocynin and diapocynin.
The HFD study was performed exactly as described previously. ^8 Littermates of WT and Nox2KO mice on a C57BL/6J background (Jackson Laboratory, USA) were bred in our institution from heterozygotes and genotyped. […] Body weights were measured weekly. […] The body weights were recorded and organs were harvested.

[3] = Time-dependent distribution of apocynin in plasma, urine and tissues after iv bolus injection (HPLC-MS/MS); format: in vivo, mouse
Description: All studies were performed in accordance with the protocols approved by the Home Office under the Animals (Scientific Procedures) Act 1986, UK. For the PKPD study, male CD1 mice (Charles River Ltd) at 12 weeks of age with a body weight range between 25 and 30 g were used for the study. Mice were fasted 12 hours before bolus iv injection of apocynin at 5 mg/kg body weight (dosing volume 5 mL/kg) via a lateral tail vein. Control mice were injected with vehicle (solvent of apocynin) at each time points. Four mice/per time points were sacrificed at 0, 1, 2.5, 5, 15, 30, 60 minutes and then at 3, 6, 12, and 24 hours after iv injection of apocynin. Blood samples were collected and centrifuged at 2000 g, 4°C for 10 minutes for plasma collection. Urine samples were collected from bladders. Tissues were harvested for further experiments.
as §1

[4] = set-up: method as in PMID 25140304; conditions: rats, intraperitoneal injection, urine collected at 20 hours; cited from earlier work
[5] = tested on: O2·‐ production in tissue homogenates; test: O2·- production in tissue homogenates by lucigenin-chemiluminescence after iv injection (PD profile); format: in vivo, mouse; conditions: iv 5 mg/kg
Description: All studies were performed in accordance with the protocols approved by the Home Office under the Animals (Scientific Procedures) Act 1986, UK. For the PKPD study, male CD1 mice (Charles River Ltd) at 12 weeks of age with a body weight range between 25 and 30 g were used for the study. Mice were fasted 12 hours before bolus iv injection of apocynin at 5 mg/kg body weight (dosing volume 5 mL/kg) via a lateral tail vein. Control mice were injected with vehicle (solvent of apocynin) at each time points. Four mice/per time points were sacrificed at 0, 1, 2.5, 5, 15, 30, 60 minutes and then at 3, 6, 12, and 24 hours after iv injection of apocynin. Blood samples were collected and centrifuged at 2000 g, 4°C for 10 minutes for plasma collection. Urine samples were collected from bladders. Tissues were harvested for further experiments. ROS production was measured using tissue homogenates by three complementary techniques: lucigenin (5 µmol/L)‐chemiluminescence (Molecular Devices); DHE (2 µmol/L) fluorescence on brain tissue sections, and brain tissue lipid peroxidation by malondialdehyde (MDA) assay as described previously. ^5 The specificity of detection of O2·‐ was confirmed by adding tiron (10 mmol/L), a non‐enzymatic O2·‐ scavenger. The enzymatic sources of O2·‐ production were identified using inhibitors targeting nitric oxide synthase (L‐N^G‐Nitro arginine methyl ester, L‐NAME, 100 μmol/L), the mitochondrial complex‐1 enzymes (rotenone, 50 μmol/L), xanthine oxidase (oxypurinol, 250 μmol/L), flavo‐proteins (diphenyleneiodonium, DPI, 20 μmol/L), or superoxide dismutase (SOD) (200 U/mL). The DHE fluorescence was captured using a Nikon fluorescence microscope (Eclipse Ti2‐E). The fluorescence intensity was quantified from at least three random images per section with three sections/per sample.

[6] = CD1 mice, iv bolus 5 mg/kg, 5 minutes, per tissue weight

concentration at 16 weeks ([2]; brain, read-out: brain apocynin concentration at end of treatment): 5370 ± 1610 ng/g | concentration at 16 weeks ([2]; heart, read-out: heart apocynin concentration at end of treatment): 1800 ± 1490 ng/g | concentration at 16 weeks ([2]; liver, read-out: liver apocynin concentration at end of treatment): 4820 ± 1340 ng/g | time apocynin remained detectable in urine ([3]; CD1 mice, iv bolus 5 mg/kg): up to 12 hours | plasma apocynin concentration (peak) ([3]; CD1 mice, iv bolus 5 mg/kg, 1 minute after injection): 5494 ± 400 ng/mL | brain apocynin concentration (peak) ([3]; CD1 mice, iv bolus 5 mg/kg, 1 minute, per tissue weight): 4603 ± 208 ng/g | heart apocynin peak concentration [3, 6]: 3161 ± 309 ng/g | liver apocynin peak concentration [3, 6]: 2853 ± 35 ng/g | urine apocynin peak concentration ([3]; CD1 mice, iv bolus 5 mg/kg, at 30 minutes): 20492 ng/mL | apocynin detection in urine ([3]; CD1 mice, iv bolus 5 mg/kg, until 5 minutes after injection): undetectable | half-life in the brain compared with plasma ([3]; after iv injection): longer | renal clearance ([3]; after iv injection): high | concentration at 30 min ([3]; male, mouse, brain, CD1 mice, iv bolus 5 mg/kg, read-out: brain apocynin concentration): 103 ± 4 ng/g | concentration at 5 min ([3]; male, mouse, plasma, CD1 mice, iv bolus 5 mg/kg, 5 minutes): 3240 ± 1560 ng/mL | concentration at 15 min ([3]; male, mouse, plasma, CD1 mice, iv bolus 5 mg/kg, 15 minutes): ~50 ng/mL | concentration at 30 min ([3]; male, mouse, plasma, CD1 mice, iv bolus 5 mg/kg, read-out: plasma apocynin concentration): ~10 ng/mL | concentration at 3 h ([3]; male, mouse, urine, CD1 mice, iv bolus 5 mg/kg, 3 hours): 230 ± 31 ng/mL
Structure (SMILES): COc1cc(C(C)=O)ccc1O [Apocynin, 4‐hydroxy‐3‐methoxyacetophenone]
effect on brain Nox2 expression [1]: significantly reduced | apocynin recovered in unchanged form in urine [4]: 80% | inhibition at 5 mg/kg ([5]; Mus musculus, 1 min, brain homogenates, starting at 1 minute): 60.4 ± 25.4% | duration of inhibition of brain O2·- production ([5]; brain homogenates): up to 60 minutes | start of inhibition of brain O2·- production ([5]; brain homogenates): 1 min | time at which inhibition of brain O2·- production became significant ([5]; brain homogenates): 2.5 min | time at which inhibition of brain O2·- production disappeared ([5]; brain homogenates): 3 h | duration of inhibition of heart O2·- production ([5]; heart homogenates): ~ 60 minutes | start of inhibition of heart O2·- production ([5]; heart homogenates): 1 min | time at which inhibition of heart O2·- production became significant ([5]; heart homogenates): 2.5 min | time at which inhibition of heart O2·- production disappeared ([5]; heart homogenates): 3 h | duration of inhibition of liver O2·- production ([5]; liver homogenates): ~ 60 minutes | time at which inhibition of liver O2·- production disappeared ([5]; liver homogenates): 3 h | onset of inhibition of liver O2·- production ([5]; liver homogenates, vs time 0 control): ≤ 1 min
